Key:
C-RAF = target: T1, C-RAF (Homo sapiens, UniProt P04049, Y340E/Y341E); experiment: In vitro Raf activity determination (Alpha Screen, biotinylated kinase-dead MEK1 substrate), C-Raf; assay type: biochemical; conditions: c-Raf approximately 4 nM; ATP 1 μM; pre-incubation 60 minutes; reaction 1 hour at room temperature
T1 construct: His tag (implied by nickel chromatography) (cleaved yes); StrepII tag (cleaved yes); made in house; host or cells: Sf9 insect cells (baculovirus), CRAF and h14-3-3 zeta co-expressed; MEK1 substrate from E. coli
In short: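 Full-length C-Raf carrying Y340E/Y341E, co-expressed with 14-3-3ζ in Sf9 cells, at approximately 4 nM, with approximately 10 nM biotinylated kinase-dead MEK1 (K97R) and 1 μM ATP, pH 7.5. Compound preincubated 60 min, reaction 1 hour at room temperature. Phospho-MEK read by AlphaScreen; IC50 by non-linear regression.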

b-Raf (V600E) = target: T2, b-Raf (V600E) (Homo sapiens, UniProt P15056, V600E); experiment: In vitro Raf activity determination (Alpha Screen, biotinylated kinase-dead MEK1 substrate), B-Raf; assay type: biochemical; conditions: b-Raf (V600E) approximately 4 pM; ATP 10 μM; pre-incubation 60 minutes; reaction 3 hours at room temperature
T2 construct: made in house
In short: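 Activated b-Raf(V600E) (~4 pM) pre-incubated 60 min with compound and biotinylated kinase-dead (K97R) MEK1 (~10 nM), then reacted 3 h at room temperature with 10 μM ATP in 50 mM Tris pH 7.5, 15 mM MgCl2, 0.01% BSA, 1 mM DTT. Phospho-MEK detected by AlphaScreen; IC50 by non-linear regression.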

T1 sequence (P04049 whole entry Y340E/Y341E): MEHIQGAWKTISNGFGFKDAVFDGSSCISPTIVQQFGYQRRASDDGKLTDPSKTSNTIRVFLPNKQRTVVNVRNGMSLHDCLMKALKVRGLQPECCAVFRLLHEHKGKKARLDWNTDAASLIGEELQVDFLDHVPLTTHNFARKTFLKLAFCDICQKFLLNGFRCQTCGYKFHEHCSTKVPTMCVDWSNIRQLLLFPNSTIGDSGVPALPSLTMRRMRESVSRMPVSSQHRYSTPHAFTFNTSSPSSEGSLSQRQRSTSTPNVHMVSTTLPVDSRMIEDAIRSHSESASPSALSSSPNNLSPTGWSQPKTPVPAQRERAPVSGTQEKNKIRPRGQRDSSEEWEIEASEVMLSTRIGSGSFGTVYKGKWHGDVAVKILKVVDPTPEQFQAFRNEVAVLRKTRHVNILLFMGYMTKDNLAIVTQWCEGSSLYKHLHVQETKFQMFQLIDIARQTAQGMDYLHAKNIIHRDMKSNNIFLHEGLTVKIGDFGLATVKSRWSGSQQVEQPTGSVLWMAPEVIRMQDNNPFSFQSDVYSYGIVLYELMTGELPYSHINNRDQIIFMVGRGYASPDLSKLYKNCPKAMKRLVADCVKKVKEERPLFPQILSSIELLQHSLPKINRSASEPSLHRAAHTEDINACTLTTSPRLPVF
T1 sequence (P63104 whole entry partner): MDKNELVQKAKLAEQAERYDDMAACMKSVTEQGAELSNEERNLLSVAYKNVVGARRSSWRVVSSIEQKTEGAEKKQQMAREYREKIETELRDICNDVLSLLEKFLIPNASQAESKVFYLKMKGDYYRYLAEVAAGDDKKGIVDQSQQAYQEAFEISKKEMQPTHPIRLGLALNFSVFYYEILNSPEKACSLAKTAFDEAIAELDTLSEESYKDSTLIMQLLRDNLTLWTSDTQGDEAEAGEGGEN
T2 sequence (P15056 whole entry V600E): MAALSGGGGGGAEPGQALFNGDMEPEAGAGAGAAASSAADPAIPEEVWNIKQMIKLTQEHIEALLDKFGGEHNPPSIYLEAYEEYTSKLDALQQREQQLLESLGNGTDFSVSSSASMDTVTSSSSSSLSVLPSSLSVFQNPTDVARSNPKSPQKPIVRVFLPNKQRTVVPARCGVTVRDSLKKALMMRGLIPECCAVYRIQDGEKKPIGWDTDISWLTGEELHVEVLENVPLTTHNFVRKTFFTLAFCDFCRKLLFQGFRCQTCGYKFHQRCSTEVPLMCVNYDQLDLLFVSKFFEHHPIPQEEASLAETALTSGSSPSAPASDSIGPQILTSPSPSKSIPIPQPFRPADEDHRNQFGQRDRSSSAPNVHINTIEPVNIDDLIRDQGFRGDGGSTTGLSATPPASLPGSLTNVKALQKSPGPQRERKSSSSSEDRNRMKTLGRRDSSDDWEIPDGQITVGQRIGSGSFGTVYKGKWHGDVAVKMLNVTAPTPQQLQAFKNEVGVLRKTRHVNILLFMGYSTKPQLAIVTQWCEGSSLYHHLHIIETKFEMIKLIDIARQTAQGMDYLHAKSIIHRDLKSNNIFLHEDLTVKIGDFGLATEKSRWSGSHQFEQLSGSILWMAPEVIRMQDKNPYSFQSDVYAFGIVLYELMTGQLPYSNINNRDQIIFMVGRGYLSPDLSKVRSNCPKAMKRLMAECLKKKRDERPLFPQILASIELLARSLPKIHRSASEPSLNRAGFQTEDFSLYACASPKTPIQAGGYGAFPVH

| SMILES | IC50 (C-RAF) [nM] | IC50 (b-Raf (V600E)) [nM] |
| --- | --- | --- |
| Cc1ccc(NC(=O)c2ccnc(C3CC3)c2)cc1-c1cnc(N2CC(C)(O)C2)c(C#N)c1 [Example 219, N-(3-(5-cyano-6-(3-hydroxy-3-methylazetidin-1-yl)pyridin-3-yl)-4-methylphenyl)-2-cyclopropyl-isonicotinamide] | 0.171 | 1.31 |
| Cc1ccc(NC(=O)c2ccnc(C3(C#N)CC3)c2)cc1-c1cnc(N2CC(C)(O)C2)c(C#N)c1 [Example 220, N-(3-(5-cyano-6-(3-hydroxy-3-methylazetidin-1-yl)pyridin-3-yl)-4-methylphenyl)-2-(1-cyanocyclopropyl) isonicotinamide] | 0.183 | 0.939 |
| CCn1cc(C(=O)Nc2ccc(C)c(-c3cnc(N4CC(C)(O)C4)c(C#N)c3)c2)cc(C(F)(F)F)c1=O [Example 221, N-(3-(5-cyano-6-(3-hydroxy-3-methylazetidin-1-yl)pyridin-yl)-4-methylphenyl)-1-ethyl-6-oxo-5-(trifluoromethyl)-1,6-dihydropyridine-3-carboxamide] | 0.591 | 3.65 |
| Cc1ccc(NC(=O)c2cc(C(F)(F)F)ccn2)cc1-c1cnc(N2CCOCC2)c(C#N)c1 [Example 222, N-(3-(5-cyano-6-morpholinopyridin-3-yl)-4-methylphenyl)-4-(trifluoromethyl) picolinamide] | 0.219 | 1 |
| Cc1ncc(NC(=O)c2cc(C(F)(F)F)ccn2)cc1-c1cnc(N2CCOCC2)c(C#N)c1 [Example 223, N-(5′-cyano-2-methyl-6′-morpholino-[3,3′-bipyridin]-5-yl)-4-(trifluoromethyl) picolinamide] | 0.304 | 1 |
| Cc1ccc(NC(=O)c2cc(C(F)(F)F)ccn2)cc1-c1cnc(N2CC(C)(O)C2)c(C#N)c1 [Example 224, N-(3-(5-cyano-6-(3-hydroxy-3-methylazetidin-1-yl)pyridin-3-yl)-4-methylphenyl)-4-(trifluoromethyl) picolinamide] | 0.49 | 2 |
| Cc1ncc(NC(=O)c2cc(C(F)(F)F)ccn2)cc1-c1cnc(N2CC(C)(O)C2)c(C#N)c1 [Example 225, N-(5′-cyano-6′-(3-hydroxy-3-methylazetidin-1-yl)-2-methyl-[3,3′-bipyridin]-5-yl)-4-(trifluoromethyl) picolinamide] | 1.08 | 5 |
| Cc1ccc(NC(=O)c2cc(C(F)(F)F)ccn2)cc1-c1cnc(NC2CCOCC2)c(C#N)c1 [Example 226, N-(3-(5-cyano-6-((tetrahydro-2H-pyran-4-yl)amino)pyridin-3-yl)-4-methylphenyl)-4-(trifluoromethyl) picolinamide] | 0.695 | 2 |
| Cc1ncc(NC(=O)c2cc(C(F)(F)F)ccn2)cc1-c1cnc(NC2CCOCC2)c(C#N)c1 [Example 227, N-(5′-cyano-2-methyl-6′-((tetrahydro-2H-pyran-4-yl)amino)-[3,3′-bipyridin]-5-yl)-4-(trifluoromethyl) picolinamide] | 0.796 | 3 |
| COCCNc1ncc(-c2cc(NC(=O)c3cc(C(F)(F)F)ccn3)ccc2C)cc1C#N [Example 228, N-(3-(5-cyano-6-((2-methoxyethyl)amino)pyridin-3-yl)-4-methylphenyl)-4-(trifluoromethyl) picolinamide] | 0.409 | 2 |
| COCCNc1ncc(-c2cc(NC(=O)c3cc(C(F)(F)F)ccn3)cnc2C)cc1C#N [Example 229, N-(5′-cyano-6′-((2-methoxyethyl)amino)-2-methyl-[3,3′-bipyridin]-5-yl)-4-(trifluoromethyl) picolinamide] | 1.37 | 5 |
| Cc1ncc(NC(=O)c2cc(C(C)(C)C#N)ccn2)cc1-c1cnc(N2CCOCC2)c(C#N)c1 [Example 230, N-(5′-cyano-2-methyl-6′-morpholino-[3,3′-bipyridin]-5-yl)-4-(2-cyanopropan-2-yl)picolinamide] | 0.384 | 2.62 |
| Cc1ncc(NC(=O)c2cc(C(C)(C)C#N)ccn2)cc1-c1cnc(N2CC(C)(O)C2)c(C#N)c1 [Example 231, N-(5′-cyano-6′-(3-hydroxy-3-methylazetidin-1-yl)-2-methyl-[3,3′-bipyridin]-5-yl)-4-(2-cyanopropan-2-yl)picolinamide] | 1.96 | 15.8 |
| Cc1ccc(NC(=O)c2cc(C(C)(C)C#N)ccn2)cc1-c1cnc(N2CC(C)(O)C2)c(C#N)c1 [Example 232, N-(3-(5-cyano-6-(3-hydroxy-3-methylazetidin-1-yl)pyridin-3-yl)-4-methylphenyl)-4-(2-cyanopropan-2-yl)picolinamide] | 0.42 | 3.18 |
| Cc1ccc(NC(=O)c2cc(C(C)(C)C#N)ccn2)cc1-c1cnc(N2CCOCC2)c(C#N)c1 [Example 233, N-(3-(5-cyano-6-morpholinopyridin-3-yl)-4-methylphenyl)-4-(2-cyanopropan-2-yl)picolinamide] | 0.187 | 1.34 |
| Cc1ncc(NC(=O)c2cc(C(C)(C)O)ccn2)cc1-c1cnc(N2CCOCC2)c(C#N)c1 [Example 234, N-(5′-cyano-2-methyl-6′-morpholino-[3,3′-bipyridin]-5-yl)-4-(2-hydroxypropan-2-yl)picolinamide] | 2.23 | 3.87 |
| Cc1ncc(NC(=O)c2cc(C(C)(C)O)ccn2)cc1-c1cnc(N2CC(C)(O)C2)c(C#N)c1 [Example 235, N-(5′-cyano-6′-(3-hydroxy-3-methylazetidin-1-yl)-2-methyl-[3,3′-bipyridin]-5-yl)-4-(2-hydroxypropan-2-yl)picolinamide] | 5.8 | 27.9 |
| Cc1ccc(NC(=O)c2cc(C(C)(C)O)ccn2)cc1-c1cnc(N2CC(C)(O)C2)c(C#N)c1 [Example 236, N-(3-(5-cyano-6-(3-hydroxy-3-methylazetidin-1-yl)pyridin-3-yl)-4-methylphenyl)-4-(2-hydroxypropan-2-yl)picolinamide] | 1.55 | 5.78 |
| Cc1ccc(NC(=O)c2cc(C(C)(C)O)ccn2)cc1-c1cnc(N2CCOCC2)c(C#N)c1 [Example 237, N-(3-(5-cyano-6-morpholinopyridin-3-yl)-4-methylphenyl) 4-(2-hydroxypropan-2-yl)picolinamide] | 0.695 | 2.25 |
| Cc1ncc(NC(=O)c2cc(C(C)(F)F)ccn2)cc1-c1cnc(N2CCOCC2)c(C#N)c1 [Example 238, N-(5′-cyano-2-methyl-6′-morpholino-[3,3′-bipyridin]-5-yl)-4-(1,1-difluoroethyl) picolinamide] | 0.333 | 2.25 |
| Cc1ncc(NC(=O)c2cc(C(C)(F)F)ccn2)cc1-c1cnc(N2CC(C)(O)C2)c(C#N)c1 [Example 239] | 0.711 | 6.38 |
| Cc1ccc(NC(=O)c2cc(C(C)(F)F)ccn2)cc1-c1cnc(N2CC(C)(O)C2)c(C#N)c1 [Example 240, N-(3-(5-cyano-6-(3-hydroxy-3-methylazetidin-1-yl)pyridin-3-yl)-4-methylphenyl)-4-(1,1-difluoroethyl) picolinamide] | 0.519 | 3.51 |
| Cc1ccc(NC(=O)c2cc(C(C)(F)F)ccn2)cc1-c1cnc(N2CCOCC2)c(C#N)c1 [Example 241, N-(3-(5-cyano-6-morpholinopyridin-3-yl)-4-methylphenyl)-4-(1,1-difluoroethyl) picolinamide] | 0.279 | 1.5 |

Reference: patent publication US10392404B2, “Compounds and compositions as kinase inhibitors” (NOVARTIS AG, priority 2014, dated 2019)
